Assays:
[1] = molecular target: T1, CYP1A2 (Homo sapiens, UniProt P05177); assay: CYP1A2 inhibition (fluorescent substrate); assay type: in vitro ADME; details: CYP1A2, CEC substrate; read-out: Cyp IC50 1A2
T1 sequence (P05177 1-516): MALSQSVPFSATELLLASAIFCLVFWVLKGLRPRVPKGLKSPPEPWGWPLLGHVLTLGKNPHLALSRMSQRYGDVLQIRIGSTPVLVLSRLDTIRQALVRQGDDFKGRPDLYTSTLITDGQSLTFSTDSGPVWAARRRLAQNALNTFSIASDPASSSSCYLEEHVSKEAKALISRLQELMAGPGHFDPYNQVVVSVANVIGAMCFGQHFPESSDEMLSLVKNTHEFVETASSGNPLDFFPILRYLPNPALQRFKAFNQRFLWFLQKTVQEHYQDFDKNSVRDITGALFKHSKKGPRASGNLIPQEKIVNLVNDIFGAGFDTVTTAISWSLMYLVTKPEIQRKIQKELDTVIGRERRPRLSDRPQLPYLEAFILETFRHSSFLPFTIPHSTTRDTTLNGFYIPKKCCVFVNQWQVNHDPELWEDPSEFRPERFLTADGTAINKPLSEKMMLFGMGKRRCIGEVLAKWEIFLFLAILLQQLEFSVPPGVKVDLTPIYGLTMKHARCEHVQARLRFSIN
Summary of the method: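 Human CYP activity was followed by the fluorescence of the metabolized product of a known substrate, which falls as metabolism is inhibited. Compounds from 100 mM DMSO stocks were serially diluted 1:1 over 10 points in co-factor mix and preincubated 10 min at 37 °C. IC50 was fitted from signal versus concentration.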

[2] = molecular target: B-Raf (Homo sapiens, UniProt P15056); assay: B-Raf biochemical kinase inhibition (AlphaScreen, biotin-MEK1 substrate); details: 100 μM ATP
Sequence of B-Raf (P15056 whole entry): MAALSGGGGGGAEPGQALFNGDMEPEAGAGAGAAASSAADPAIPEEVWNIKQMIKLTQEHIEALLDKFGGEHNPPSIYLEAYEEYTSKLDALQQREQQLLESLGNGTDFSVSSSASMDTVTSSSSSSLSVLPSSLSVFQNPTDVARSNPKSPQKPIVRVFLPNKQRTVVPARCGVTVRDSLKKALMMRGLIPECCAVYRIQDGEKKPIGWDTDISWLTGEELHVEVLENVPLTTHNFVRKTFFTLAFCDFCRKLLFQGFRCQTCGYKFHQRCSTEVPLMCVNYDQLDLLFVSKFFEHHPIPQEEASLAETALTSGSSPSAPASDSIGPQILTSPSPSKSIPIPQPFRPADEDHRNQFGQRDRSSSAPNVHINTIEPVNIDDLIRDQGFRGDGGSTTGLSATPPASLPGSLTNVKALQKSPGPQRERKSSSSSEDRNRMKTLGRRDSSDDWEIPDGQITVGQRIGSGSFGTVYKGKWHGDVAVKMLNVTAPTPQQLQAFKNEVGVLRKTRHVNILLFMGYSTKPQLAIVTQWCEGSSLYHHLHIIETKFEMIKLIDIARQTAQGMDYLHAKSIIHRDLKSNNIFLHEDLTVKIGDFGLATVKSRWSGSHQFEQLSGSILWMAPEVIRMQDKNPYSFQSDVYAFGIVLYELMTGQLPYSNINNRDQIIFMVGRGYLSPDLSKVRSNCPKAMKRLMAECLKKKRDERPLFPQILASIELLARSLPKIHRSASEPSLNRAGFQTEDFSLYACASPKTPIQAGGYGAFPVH
Summary of the method: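 Raf kinases phosphorylating biotin-MEK1, reaction started with ATP at 100 μM final. Compounds tested at 8 points by serial dilution from a 0.1 mM DMSO stock.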

[3] = tested on: SW620 colon adenocarcinoma cells (wild-type B-RAF); assay: SW620 cell growth inhibition (ATPlite); assay type: cell-based; details: Homo sapiens, SW-620, 72 h; SW620, 3 days incubation
Summary of the method: (§1)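 Cells plated overnight, then exposed 3 days at 37° C to 8-point 1:3 compound dilutions topping at 10 μM final. Viability read as ATPlite luminescence, proportional to cell number; IC50 from luminescence versus concentration.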

[4] = tested on: COLO205 colon adenocarcinoma cells (B-Raf V600E); assay: COLO205 cell growth inhibition (ATPlite); assay type: cell-based; details: Homo sapiens, COLO 205, 72 h; COLO205, 3 days incubation
Summary of the method: as §1

SMILES	IC50 [1]	IC50 [2]	IC50 [3]	IC50 [4]
COc1ncc(-c2cnc3[nH]cc(C(=O)c4c(F)ccc(NS(=O)(=O)c5ccccc5F)c4F)c3c2)cn1 [P-2041, N-{2,4-Difluoro-3-[5-(2-methoxy-pyrimidin-5-yl)-1H-pyrrolo[2,3-b]pyridine-3-carbonyl]-phenyl}-2-fluoro-benzenesulfonamide]	> 10 µM	< 0.01 µM	> 10 µM	< 1 µM
CCCS(=O)(=O)Nc1ccc(F)c(C(=O)c2c[nH]c3ncc(-c4ccc(S(C)(=O)=O)cc4)cc23)c1F [P-2183, Propane-1-sulfonic acid {2,4-difluoro-3-[5-(4-methanesulfonyl-phenyl)-1H-pyrrolo[2,3-b]pyridine-3-carbonyl]-phenyl}-amide]	> 10 µM	< 0.01 µM	< 20 µM	< 0.1 µM
COc1cnc2[nH]cc(C(=O)c3c(F)ccc(NS(=O)(=O)c4ccccc4F)c3F)c2c1 [P-2009, N-[2,4-Difluoro-3-(5-methoxy-1H-pyrrolo[2,3-b]pyridine-3-carbonyl)-phenyl]-2-fluoro-benzenesulfonamide]	> 10 µM	< 0.1 µM	> 10 µM	< 5 µM
CCCS(=O)(=O)Nc1cccc(C(=O)c2c[nH]c3ncc(-c4cnc(OC)nc4)cc23)c1F [P-2407, Propane-1-sulfonic acid {2-fluoro-3-[5-(2-methoxy-pyrimidin-5-yl)-1H-pyrrolo[2,3-b]pyridine-3-carbonyl]-phenyl}-amide]	> 10 µM	< 0.1 µM	> 10 µM	< 1 µM
CCCS(=O)(=O)Nc1ccc(F)c(C(=O)c2c[nH]c3ncc(-c4ccc(CCCOC)nc4)cc23)c1F [P-2226, Propane-1-sulfonic acid (2,4-difluoro-3-{5-[6-(3-methoxy-propyl)-pyridin-3-yl]-1H-pyrrolo[2,3-b]pyridine-3-carbonyl}-phenyl)-amide]	> 10 µM	< 0.01 µM	> 10 µM	< 0.1 µM
O=C(c1c(F)ccc(NS(=O)(=O)c2cc(F)ccc2F)c1F)c1c[nH]c2ncc(Cl)cc12 [P-2002, N-[3-(5-Chloro-1H-pyrrolo[2,3-b]pyridine-3-carbonyl)-2,4-difluoro-phenyl]-2,5-difluoro-benzenesulfonamide]	> 10 µM	< 0.01 µM	< 20 µM	< 1 µM
O=C(c1c(F)ccc(NS(=O)(=O)c2ccccc2F)c1F)c1c[nH]c2nccc(Cl)c12 [P-2017, N-[3-(4-Chloro-1H-pyrrolo[2,3-b]pyridine-3-carbonyl)-2,4-difluoro-phenyl]-2-fluoro-benzenesulfonamide]	> 10 µM	< 0.1 µM	> 10 µM	< 5 µM
N#Cc1cnc2[nH]cc(C(=O)c3c(F)ccc(NS(=O)(=O)c4cccnc4)c3F)c2c1 [P-2072, Pyridine-3-sulfonic acid [3-(5-cyano-1H-pyrrolo[2,3-b]pyridine-3-carbonyl)-2,4-difluoro-phenyl]-amide]	> 10 µM	< 0.01 µM	> 10 µM	< 5 µM
N#Cc1cnc2[nH]cc(C(=O)c3cccc(NS(=O)(=O)c4cccc(F)c4)c3F)c2c1 [P-2053, N-[3-(5-Cyano-1H-pyrrolo[2,3-b]pyridine-3-carbonyl)-2-fluoro-phenyl]-3-fluoro-benzenesulfonamide]	> 10 µM	< 0.01 µM	> 10 µM	< 1 µM
CCCS(=O)(=O)Nc1ccc(F)c(C(=O)c2c[nH]c3ncc(-c4ccc(N)nc4)cc23)c1F [P-2214, Propane-1-sulfonic acid {3-[5-(6-amino-pyridin-3-yl)-1H-pyrrolo[2,3-b]pyridine-3-carbonyl]-2,4-difluoro-phenyl}-amide]	> 10 µM	< 0.01 µM	< 20 µM	< 1 µM
CCCS(=O)(=O)Nc1ccc(F)c(C(=O)c2c[nH]c3ncc(-c4cnc(SC)nc4)cc23)c1F [P-2189, Propane-1-sulfonic acid {2,4-difluoro-3-[5-(2-methylsulfanyl-pyrimidin-5-yl)-1H-pyrrolo[2,3-b]pyridine-3-carbonyl]-phenyl}-amide]	> 10 µM	< 0.01 µM	> 10 µM	< 1 µM
CCCS(=O)(=O)Nc1ccc(F)c(C(=O)c2c[nH]c3ncc(-c4ccc(NC(C)=O)nc4)cc23)c1F [P-2193, N-(5-{3-[2,6-Difluoro-3-(propane-1-sulfonylamino)-benzoyl]-1H-pyrrolo[2,3-b]pyridin-5-yl}-pyridin-2-yl)-acetamide]	> 10 µM	< 0.01 µM	> 10 µM	< 1 µM
CCCS(=O)(=O)Nc1ccc(F)c(C(=O)c2c[nH]c3ncc(-c4ccc(S(=O)(=O)NC)cc4)cc23)c1F [P-2167, 4-{3-[2,6-Difluoro-3-(propane-1-sulfonylamino)-benzoyl]-1H-pyrrolo[2,3-b]pyridin-5-yl}-N-methyl-benzenesulfonamide]	> 10 µM	< 0.01 µM	< 10 µM	< 0.1 µM
C#Cc1cnc2[nH]cc(C(=O)c3c(F)ccc(NS(=O)(=O)CCC)c3F)c2c1 [P-2260, Propane-1-sulfonic acid [3-(5-ethynyl-1H-pyrrolo[2,3-b]pyridine-3-carbonyl)-2,4-difluoro-phenyl]-amide]	> 10 µM	< 0.01 µM	> 10 µM	< 1 µM
CCCS(=O)(=O)Nc1ccc(F)c(C(=O)c2c[nH]c3ncc(-c4cnn(CCN5CCOCC5)c4)cc23)c1F [P-2177, Propane-1-sulfonic acid (2,4-difluoro-3-{5-[1-(2-morpholin-4-yl-ethyl)-1H-pyrazol-4-yl]-1H-pyrrolo[2,3-b]pyridine-3-carbonyl}-phenyl)-amide]	> 10 µM	< 0.01 µM	< 20 µM	< 0.1 µM
CCCS(=O)(=O)Nc1ccc(F)c(C(=O)c2c[nH]c3ncc(-c4cnn(Cc5ccccc5)c4)cc23)c1F [P-2190, Propane-1-sulfonic acid {3-[5-(1-benzyl-1H-pyrazol-4-yl)-1H-pyrrolo[2,3-b]pyridine-3-carbonyl]-2,4-difluoro-phenyl}-amide]	> 10 µM	< 0.01 µM	< 10 µM	< 1 µM
N#Cc1cnc2[nH]cc(C(=O)c3c(F)ccc(NS(=O)(=O)c4ccccc4)c3F)c2c1 [P-2046, N-[3-(5-Cyano-1H-pyrrolo[2,3-b]pyridine-3-carbonyl)-2,4-difluoro-phenyl]-benzenesulfonamide]	> 10 µM	< 0.01 µM	< 5 µM	< 1 µM
O=C(c1c(F)ccc(NS(=O)(=O)c2cccc(F)c2)c1F)c1c[nH]c2nccc(Cl)c12 [P-2019, N-[3-(4-Chloro-1H-pyrrolo[2,3-b]pyridine-3-carbonyl)-2,4-difluoro-phenyl]-3-fluoro-benzenesulfonamide]	> 10 µM	< 0.01 µM	> 10 µM	< 5 µM
N#Cc1cnc2[nH]cc(C(=O)c3cccc(NS(=O)(=O)c4ccccc4)c3F)c2c1 [P-2056, N-[3-(5-Cyano-1H-pyrrolo[2,3-b]pyridine-3-carbonyl)-2-fluoro-phenyl]-benzenesulfonamide]	> 10 µM	< 0.1 µM	< 5 µM	< 5 µM
CCCS(=O)(=O)Nc1ccc(F)c(C(=O)c2c[nH]c3ncc(-c4ccc(SC)nc4)cc23)c1F [P-2187, Propane-1-sulfonic acid {2,4-difluoro-3-[5-(6-methylsulfanyl-pyridin-3-yl)-1H-pyrrolo[2,3-b]pyridine-3-carbonyl]-phenyl}-amide]	> 10 µM	< 0.01 µM	> 10 µM	< 1 µM
CCCS(=O)(=O)Nc1ccc(F)c(C(=O)c2c[nH]c3ncc(-c4ccc(OCCN5CCOCC5)nc4)cc23)c1F [P-2232, Propane-1-sulfonic acid (2,4-difluoro-3-{5-[6-(2-morpholin-4-yl-ethoxy)-pyridin-3-yl]-1H-pyrrolo[2,3-b]pyridine-3-carbonyl}-phenyl)-amide]	> 10 µM	< 0.01 µM	> 10 µM	< 0.1 µM
CCCS(=O)(=O)Nc1ccc(F)c(C(=O)c2c[nH]c3ncc(-c4ccc(N5CCCC5)nc4)cc23)c1F [P-2231, Propane-1-sulfonic acid {2,4-difluoro-3-[5-(6-pyrrolidin-1-yl-pyridin-3-yl)-1H-pyrrolo[2,3-b]pyridine-3-carbonyl]-phenyl}-amide]	< 5 µM	< 0.01 µM	< 5 µM	< 1 µM
